Legend:
[1] = system: peptide-specific IFN-γ producing cells; parameters: species or system C57B1/6 mice; conditions: mouse, in vivo, sc
[2] = system: peptide-specific T cells in patient-derived peripheral blood mononuclear cells (PBMC); type: cell-based, human (HLA-A*0201 HCV positive patient); conditions: for Counts-mean size >10 / Counts-mean size >25 / Counts-mean size >75: IFN-g ELIspot spot counts, Patient, Plate 11_01_03, patient-derived PBMC; for Counts-mean size >10: spot size >10; for Counts-mean size >25: spot size >25; for Counts-mean size >75: spot size >75; for number of peptide-specific T cells (IFN-g Elispot): PBMC of patient cured of chronic HCV infection, frozen 1996 (Table 5, FIG. 3)
Description: Since those ncORF peptides are immunogenic in tg-mice, the present peptides were ananlysed in an ELIspot assay on PBL's from HCV+ patients.
Patient-derived peripheral blood mononuclear cells (PBMC) frozen in 1996 were thawed to perform an IFN-g Elispot assay with the following peptides: […]

Row | Sequence | peptide-specific IFN-γ spots (ELIspot) [1] | Counts-mean size >10 [2] | Counts-mean size >25 [2] | Counts-mean size >75 [2] | number of peptide-specific T cells (IFN-g Elispot) [2]
1 | SSIAAQDAL [p1600] | do not show any specific spots |  |  |  | 
2 | FMLGALLPI [Ipep 1373] |  | 159 | 86 | 3 | high numbers of peptide-specific T cells
3 | TLWAGPLLKV [Ipep 1371] |  | 24 | 15 | 2 | high numbers of peptide-specific T cells
4 | TMLYNKMEF [p1569] | specifically release IFN-γ |  |  |  | 
5 | VTILNLALL [p1664] | specifically release IFN-γ |  |  |  | 
6 | LLLQRWALV [Ipep 1372] |  | 43 | 36 | 13 | high numbers of peptide-specific T cells
7 | IASNENMETM [p1574, reference compound] | do not show any specific spots |  |  |  | 
